Measurements from US12478614B2, “Inhibitors of glutathione s-transferases (GSTs) and NAD(P)H:quinone oxidoreductase 1 (NQO1), pharmaceutical compositions, and uses in managing cancer” (Emory University, priority 2020, dated 2025).
Entries after “also recorded” stand apart in the source; their conditions may differ.

Experiments:
U87MG/EGFRvIII cells [1] = assay: Proliferation of U87MG/EGFRvIII cells; assay type: cell-based
Description: After structure-activity relationship (SAR) analysis, it was identified that that most compounds contained two aromatic rings bridged through an amide group.
(§1) To explore the anti-proliferative effects of MNPC, U87MG/EGFRVIII cells were treated with different doses of MNPC (0, 0.1, 0.5, 1 and 5 μM) for 5 days. […] Asparagine endopeptidase (AEP) is frequently overexpressed in numerous human cancers and mediates cancer cell invasion and metastasis. […] Since NQO1 and GSTP1 are the major binding proteins of MNPC, in vitro reductase enzyme activity assays with purified recombinant proteins was conducted. […] NQO1 also acts as an antioxidant enzyme by regenerating antioxidant forms of ubiquinone and vitamin E quinone. To explore whether the oxidative stress levels are correlated with the expression levels of antioxidant enzymes: NQO1 and GSTP1, the cellular ROS concentrations and cytotoxicity after MNPC treatment was examined. […] Thus, MNPC inhibits GSTP1 and NQ01 enzyme activities without altering their protein levels. […] The results were also confirmed by TUNEL assay.

GSTP1 [2] = molecular target: T1, GSTP1 (Homo sapiens, UniProt P09211); assay: In vitro enzyme activity assay, GSTP1; assay type: biochemical; conditions: purified recombinant protein
Description: as §1

NQO1 [3] = molecular target: T2, NQO1 (Homo sapiens, UniProt P15559); assay: In vitro reductase enzyme activity assay, NQO1; assay type: biochemical; conditions: purified recombinant protein
Description: as §1

U87MG/EGFRvIII cells [4] = assay: Apoptosis (caspase-3 activation, TUNEL assay); assay type: cell-based
Description: as §1

GSTP1 [5] = molecular target: T1, GSTP1; assay: Co-crystal structure with GSTP1
Description: (§2) Experiments indicate that both NQO1 and GSTP1 were overexpressed in GBM, which inhibit the oxidative stress and prevent cancer cell death. Compounds which act as NQO1 and GSTP1 dual inhibitors suppress the proliferation and stimulated apoptosis in U87MG/EGFRVIII cells. […] Thus, these experiments indicate that a small dual inhibitor for both NQO1 and GSTP1 disrupting the redox homeostasis might be an innovative strategy for GBM therapy.

U87MG/EGFR cells = assay: Cellular oxidative stress and cytotoxicity after MNPC treatment; assay type: cell-based
Description: as §1

NQO1 [6] = assay: NQO1 protein level upon treatment; assay type: cell-based; conditions: upon MNPC treatment
Description: as §1

GSTP1 [7] = molecular target: T1, GSTP1; assay: BIACORE binding assay, GSTP1; conditions: MNPC immobilized to the chip
U87MG/EGFRvIII cells [8] = assay: Cell invasion assay; assay type: cell-based
Description: as §1

NQO1 [9] = molecular target: T2, NQO1; assay: Co-crystal structure with NQO1
Description: as §2

U87MG/EGFRvIII cells [10] = assay: Murine intracranial xenograft model with U87MG/EGFRvIII cells; assay type: in vivo, Nu/Nu nude mice
Description: Nu/Nu nude mice were treated with increasing doses (3, 10 mg/kg) of MNPC by i.p. every two days for total 10 times (n=6 mice per group). The survival curves of brain tumor-bearing mice were calculated.
To assess the therapeutic potential of MNPC, a murine intracranial xenograft model was used, inoculated with U87MG/EGFRvIII cells. After 7 days of brain injection of the GBM cells and the tumor formation, the animals were treated with vehicle or different doses of MNPC (3 or 10 mg/kg) every 2 days for a total of 10 times. […] The ROS levels and signaling cascades were examined in the tissue samples derived from tumors extracted from MNPC or vehicle-treated mice.

[11] = molecular target: T3, Asparagine endopeptidase (AEP) (Homo sapiens, UniProt Q99538); assay: AEP enzymatic activity assay; assay type: cell-based
T3 construct: endogenous in cells; host or cells: U87MG/EGFRvIII (inferred from context)
T3 sequence (Q99538 18-323): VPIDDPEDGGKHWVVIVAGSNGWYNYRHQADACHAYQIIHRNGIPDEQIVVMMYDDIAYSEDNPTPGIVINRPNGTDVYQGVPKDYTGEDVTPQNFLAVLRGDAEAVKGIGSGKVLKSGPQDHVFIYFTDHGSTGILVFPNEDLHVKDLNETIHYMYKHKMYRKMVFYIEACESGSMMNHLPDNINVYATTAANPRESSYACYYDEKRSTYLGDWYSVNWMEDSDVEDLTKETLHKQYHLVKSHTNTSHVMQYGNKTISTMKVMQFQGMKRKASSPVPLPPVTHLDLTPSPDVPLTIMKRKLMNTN
Description: as §1

GSTP1 [12] = assay: GSTP1 protein level upon treatment; assay type: cell-based; conditions: upon MNPC treatment
Description: as §1

NQO1 [13] = molecular target: T2, NQO1; assay: BIACORE binding assay, NQO1; conditions: MNPC immobilized to the chip
[14] = 3 or 10 mg/kg i.p. every 2 days, 10 times, especially 10 mg/kg

For O=C(Nc1ncc([N+](=O)[O-])s1)c1ccccc1O [TIZ, 2-hydroxy-N-(5-nitrothiazol-2-yl)benzamide], the “anti-proliferative activities toward U87MG/EGFRvIII cells compared with MNPC” value (U87MG/EGFRvIII cells [1]) was “comparable anti-proliferative activities”.

CC(=O)Oc1ccccc1C(=O)Nc1ncc([N+](=O)[O-])s1 [NTZ, 2-((5-nitrothiazol-2-yl)carbamoyl)phenyl acetate] was tested, and the “anti-proliferative activities toward U87MG/EGFRvIII cells compared with MNPC” value (U87MG/EGFRvIII cells [1]) was “comparable anti-proliferative activities”.

For Cc1onc(-c2ccccc2)c1C(=O)Nc1ncc([N+](=O)[O-])s1 [MNPC, 5-methyl-N-(5-nitrothiazol-2-yl)-3-phenylisoxazole-4-carboxamide], the IC50 (GSTP1 [2]) was 797 nM, the cell proliferation (U87MG/EGFRvIII cells [1]; U87MG/EGFRVIII cells, 0, 0.1, 0.5, 1 and 5 μM for 5 days) was “dose-dependently inhibited” and the IC50 (NQO1 [3]) was 926 nM. The cell apoptosis (U87MG/EGFRvIII cells [4]; TUNEL assay) was “dose-dependently increases”, the caspase-3 activation (U87MG/EGFRvIII cells [4]; U87MG/EGFRvIII cells) was “induced” and the “effect on GSTP1 active site in co-crystal structure” value (GSTP1 [5]) was “blocked the active enzymatic sites”. For the same compound, the “Carbonyl Expression” value (U87MG/EGFR cells) was “escalated”, the LDH (U87MG/EGFR cells; cytotoxicity) was “escalated” and the ROS levels (U87MG/EGFR cells; dose-dependent) was “increased”. The GSH/GSSH ratios (U87MG/EGFR cells; in a dose-dependent manner) was “down-regulated”, the “protein level of NQO1” value (NQO1 [6]) was “not changed” and the Kd (GSTP1 [7]) was 89.6 nM. The cell invasion (U87MG/EGFRvIII cells [8]) was “no significant difference”, the “effect on NQO1 active site in co-crystal structure” value (NQO1 [9]) was “blocked the active enzymatic sites” and the “tumor growth (intracranial tumor volume)” value (U87MG/EGFRvIII cells [10]; 3 or 10 mg/kg i.p. every 2 days, 10 times) was “dose-dependent anti-tumor effect; also recorded: suppresses tumor growth”. For the same compound, the body weight (U87MG/EGFRvIII cells [10]; [14]) was “significantly increased”, the survival rates (U87MG/EGFRvIII cells [10]; [14]) was “prolonged the survival rate; also recorded: significantly increased; also recorded: elongates mouse life span” and the “ROS levels in tumor tissue samples” value (U87MG/EGFRvIII cells [10]; tumors from treated mice) was “strongly increased”. For the same compound, the “apoptotic caspase 3 in tumor tissue samples” value (U87MG/EGFRvIII cells [10]; tumors from treated mice) was “activated”, the AEP enzymatic activity [11] was “no significant difference” and the “protein level of GSTP1” value (GSTP1 [12]) was “not changed”. The Kd (NQO1 [13]) was 90.8 nM.
